Laboratory results published in patent US20080058373A1, “Compositions and Methods for Treating or Preventing Glaucoma or Progression Thereof” (priority 2006, published 2008).

Tested on: New Zealand White rabbits
Assay: Intraocular pressure (IOP) in rabbits, topical dosing four times daily
Type: in vivo
Method: Seventy-five rabbits underwent two weeks of IOP training to condition them for IOP measurement. IOP was determined for both eyes of each animal using a Medtronic Solan, Model 30 classic pneumatonometer. Proparacaine hydrochloride 0.5% (1 drop) was delivered to each eye prior to IOP measurement. A two-point diurnal curve was established: IOP was recorded on Monday, Wednesday, and Friday of each week, at 8 a.m. and 12 p.m., with a ±1 hour range for each of these times. The time of the measurements was recorded.
On Days 1-31, animals received daily topical doses of the appropriate test article into the right eye. Animals were dosed four times per day, with doses administered 2 hours apart. Doses were administered using a calibrated 50-μL pipette. The eyelids were held close for 10 seconds immediately following dosing. The time of each dose administration was recorded.
Intraocular pressure (“IOP”) was determined for both eyes of each animal on Days 3, 5, 10, 12, 16, 18, 22, 24, 26, 30, and 32. IOP was evaluated with a Medtronic Solan, Model 30 classic pneumatonometer. Proparacaine hydrochloride 0.5% (1 drop) was delivered to each eye prior to IOP measurement. IOP was measured on Monday, Wednesday, and Friday of each week. A two-point diurnal curve was established: IOP was recorded at 8 a.m. and 12 p.m. on Day 3, and at 8 a.m. and 2 p.m. on later days, with a ±1 hour range for each of these times. The time of the measurements was recorded.
Descriptive statistics were prepared for IOP data of each treatment group (left and right eyes separately) at each measurement interval. The statistics included the number of observations (“N”), mean, standard deviation (“STD”), and standard error (“SEM”). Statistical analyses were conducted on IOP results using Statistical Analysis Systems (SAS Institute, Inc., Cary, N.C., V8.0). Parameters were evaluated using analysis of variance/GLM Procedure followed by Tukey's Standardized Range Test (Tukey, 1985) for post hoc comparisons of group means. The level of significance was set at a probability of p<0.05 for all statistical procedures. Group IOP means were compared at each interval, with left and right eyes compared separately.

In the case of `Cc1ccc2c(NCC(O)(CC(C)(C)c3cc(F)cc4c3OCC4)C(F)(F)F)cccc2n1` (stereo not shown), the “Intraocular Pressure (MEAN)” value (treated right eyes, A.M. readings, Day 32, 1 mg/g (Group D)) is reported as 24.9 mmHg, the “Intraocular Pressure (MEAN)” value (treated right eyes, A.M. readings, Day 32, 5 mg/g (Group C)) is reported as 23.4 mmHg and the “Intraocular Pressure (MEAN)” value (treated right eyes, A.M. readings, Day 32, 10 mg/g (Group B)) is reported as 23.9 mmHg. The “Intraocular Pressure (MEAN)” value (treated right eyes, A.M. readings, Pre-Study, 1 mg/g (Group D)) was 24.4 mmHg, the “Intraocular Pressure (MEAN)” value (treated right eyes, A.M. readings, Pre-Study, 5 mg/g (Group C)) was 24.8 mmHg and the “Intraocular Pressure (MEAN)” value (treated right eyes, A.M. readings, Pre-Study, 10 mg/g (Group B)) was 24.0 mmHg. For the same molecule, the “Intraocular Pressure (MEAN)” value (treated right eyes, P.M. readings, Day 3, 1 mg/g (Group D)) was 24.7 mmHg, the “Intraocular Pressure (MEAN)” value (treated right eyes, P.M. readings, Day 3, 5 mg/g (Group C)) was 23.6 mmHg and the “Intraocular Pressure (MEAN)” value (treated right eyes, P.M. readings, Day 3, 10 mg/g (Group B)) was 23.1 mmHg. The “Intraocular Pressure (MEAN)” value (treated right eyes, P.M. readings, Day 5, 1 mg/g (Group D)) was 25.5 mmHg, the “Intraocular Pressure (MEAN)” value (treated right eyes, P.M. readings, Day 5, 5 mg/g (Group C)) was 24.8 mmHg and the “Intraocular Pressure (MEAN)” value (treated right eyes, P.M. readings, Day 5, 10 mg/g (Group B)) was 25.7 mmHg. For the same molecule, the “Intraocular Pressure (MEAN)” value (treated right eyes, P.M. readings, Day 10, 1 mg/g (Group D)) was 25.3 mmHg, the “Intraocular Pressure (MEAN)” value (treated right eyes, P.M. readings, Day 10, 5 mg/g (Group C)) was 25.6 mmHg and the “Intraocular Pressure (MEAN)” value (treated right eyes, P.M. readings, Day 10, 10 mg/g (Group B)) was 24.3 mmHg. The “Intraocular Pressure (MEAN)” value (treated right eyes, P.M. readings, Day 12, 1 mg/g (Group D)) was 24.0 mmHg, the “Intraocular Pressure (MEAN)” value (treated right eyes, P.M. readings, Day 12, 5 mg/g (Group C)) was 23.4 mmHg and the “Intraocular Pressure (MEAN)” value (treated right eyes, P.M. readings, Day 12, 10 mg/g (Group B)) was 23.8 mmHg. The “Intraocular Pressure (MEAN)” value (treated right eyes, P.M. readings, Day 16, 1 mg/g (Group D)) was 22.0 mmHg, the “Intraocular Pressure (MEAN)” value (treated right eyes, P.M. readings, Day 16, 5 mg/g (Group C)) was 21.4 mmHg and the “Intraocular Pressure (MEAN)” value (treated right eyes, P.M. readings, Day 16, 10 mg/g (Group B)) was 21.6 mmHg. For the same molecule, the “Intraocular Pressure (MEAN)” value (treated right eyes, P.M. readings, Day 18, 1 mg/g (Group D)) was 23.1 mmHg, the “Intraocular Pressure (MEAN)” value (treated right eyes, P.M. readings, Day 18, 5 mg/g (Group C)) was 21.6 mmHg and the “Intraocular Pressure (MEAN)” value (treated right eyes, P.M. readings, Day 18, 10 mg/g (Group B)) was 22.5 mmHg. The “Intraocular Pressure (MEAN)” value (treated right eyes, P.M. readings, Day 22, 1 mg/g (Group D)) was 22.5 mmHg, the “Intraocular Pressure (MEAN)” value (treated right eyes, P.M. readings, Day 22, 5 mg/g (Group C)) was 22.8 mmHg and the “Intraocular Pressure (MEAN)” value (treated right eyes, P.M. readings, Day 22, 10 mg/g (Group B)) was 23.1 mmHg. For the same molecule, the “Intraocular Pressure (MEAN)” value (treated right eyes, P.M. readings, Day 24, 1 mg/g (Group D)) was 23.6 mmHg, the “Intraocular Pressure (MEAN)” value (treated right eyes, P.M. readings, Day 24, 5 mg/g (Group C)) was 23.4 mmHg and the “Intraocular Pressure (MEAN)” value (treated right eyes, P.M. readings, Day 24, 10 mg/g (Group B)) was 22.8 mmHg. For the same molecule, the “Intraocular Pressure (MEAN)” value (treated right eyes, P.M. readings, Day 26, 1 mg/g (Group D)) was 22.6 mmHg, the “Intraocular Pressure (MEAN)” value (treated right eyes, P.M. readings, Day 26, 5 mg/g (Group C)) was 22.2 mmHg and the “Intraocular Pressure (MEAN)” value (treated right eyes, P.M. readings, Day 26, 10 mg/g (Group B)) was 20.9 mmHg. The “Intraocular Pressure (MEAN)” value (treated right eyes, P.M. readings, Day 30, 10 mg/g (Group B)) was 22.4 mmHg, the “Intraocular Pressure (MEAN)” value (untreated left eyes, P.M. readings, Day 3, 1 mg/g (Group D)) was 25.0 mmHg and the “Intraocular Pressure (MEAN)” value (untreated left eyes, P.M. readings, Day 3, 5 mg/g (Group C)) was 23.9 mmHg. For the same molecule, the “Intraocular Pressure (MEAN)” value (untreated left eyes, P.M. readings, Day 3, 10 mg/g (Group B)) was 23.3 mmHg, the “Intraocular Pressure (MEAN)” value (untreated left eyes, P.M. readings, Day 5, 1 mg/g (Group D)) was 24.7 mmHg and the “Intraocular Pressure (MEAN)” value (untreated left eyes, P.M. readings, Day 5, 5 mg/g (Group C)) was 24.8 mmHg. The “Intraocular Pressure (MEAN)” value (untreated left eyes, P.M. readings, Day 5, 10 mg/g (Group B)) was 25.2 mmHg, the “Intraocular Pressure (MEAN)” value (untreated left eyes, P.M. readings, Day 10, 1 mg/g (Group D)) was 24.9 mmHg and the “Intraocular Pressure (MEAN)” value (untreated left eyes, P.M. readings, Day 10, 5 mg/g (Group C)) was 24.6 mmHg. The “Intraocular Pressure (MEAN)” value (untreated left eyes, P.M. readings, Day 10, 10 mg/g (Group B)) was 23.5 mmHg, the “Intraocular Pressure (MEAN)” value (untreated left eyes, P.M. readings, Day 12, 1 mg/g (Group D)) was 23.7 mmHg and the “Intraocular Pressure (MEAN)” value (untreated left eyes, P.M. readings, Day 12, 5 mg/g (Group C)) was 23.3 mmHg. For the same molecule, the “Intraocular Pressure (MEAN)” value (untreated left eyes, P.M. readings, Day 12, 10 mg/g (Group B)) was 24.1 mmHg, the “Intraocular Pressure (MEAN)” value (untreated left eyes, P.M. readings, Day 16, 1 mg/g (Group D)) was 21.9 mmHg and the “Intraocular Pressure (MEAN)” value (untreated left eyes, P.M. readings, Day 16, 5 mg/g (Group C)) was 20.4 mmHg. For the same molecule, the “Intraocular Pressure (MEAN)” value (untreated left eyes, P.M. readings, Day 16, 10 mg/g (Group B)) was 21.4 mmHg, the “Intraocular Pressure (MEAN)” value (untreated left eyes, P.M. readings, Day 18, 1 mg/g (Group D)) was 22.7 mmHg and the “Intraocular Pressure (MEAN)” value (untreated left eyes, P.M. readings, Day 18, 5 mg/g (Group C)) was 21.9 mmHg. For the same molecule, the “Intraocular Pressure (MEAN)” value (untreated left eyes, P.M. readings, Day 18, 10 mg/g (Group B)) was 22.1 mmHg, the “Intraocular Pressure (MEAN)” value (untreated left eyes, P.M. readings, Day 22, 1 mg/g (Group D)) was 22.1 mmHg and the “Intraocular Pressure (MEAN)” value (untreated left eyes, P.M. readings, Day 22, 5 mg/g (Group C)) was 22.1 mmHg. The “Intraocular Pressure (MEAN)” value (untreated left eyes, P.M. readings, Day 22, 10 mg/g (Group B)) was 22.6 mmHg, the “Intraocular Pressure (MEAN)” value (untreated left eyes, P.M. readings, Day 24, 1 mg/g (Group D)) was 22.9 mmHg and the “Intraocular Pressure (MEAN)” value (untreated left eyes, P.M. readings, Day 24, 5 mg/g (Group C)) was 22.2 mmHg. For the same molecule, the “Intraocular Pressure (MEAN)” value (untreated left eyes, P.M. readings, Day 24, 10 mg/g (Group B)) was 22.8 mmHg, the “Intraocular Pressure (MEAN)” value (untreated left eyes, P.M. readings, Day 26, 1 mg/g (Group D)) was 22.1 mmHg and the “Intraocular Pressure (MEAN)” value (untreated left eyes, P.M. readings, Day 26, 5 mg/g (Group C)) was 22.3 mmHg. For the same molecule, the “Intraocular Pressure (MEAN)” value (untreated left eyes, P.M. readings, Day 26, 10 mg/g (Group B)) was 21.4 mmHg, the “Intraocular Pressure (MEAN)” value (untreated left eyes, P.M. readings, Day 30, 1 mg/g (Group D)) was 21.3 mmHg and the “Intraocular Pressure (MEAN)” value (untreated left eyes, P.M. readings, Day 30, 5 mg/g (Group C)) was 20.9 mmHg. The “Intraocular Pressure (MEAN)” value (untreated left eyes, P.M. readings, Day 30, 10 mg/g (Group B)) was 21.7 mmHg, the “Intraocular Pressure (MEAN)” value (untreated left eyes, P.M. readings, Day 32, 1 mg/g (Group D)) was 21.9 mmHg and the “Intraocular Pressure (MEAN)” value (untreated left eyes, P.M. readings, Day 32, 5 mg/g (Group C)) was 21.5 mmHg. For the same molecule, the “Intraocular Pressure (MEAN)” value (untreated left eyes, P.M. readings, Day 32, 10 mg/g (Group B)) was 22.6 mmHg, the “Intraocular Pressure (MEAN)” value (untreated left eyes, P.M. readings, Pre-Study, 1 mg/g (Group D)) was 24.2 mmHg and the “Intraocular Pressure (MEAN)” value (untreated left eyes, P.M. readings, Pre-Study, 5 mg/g (Group C)) was 24.4 mmHg. The “Intraocular Pressure (MEAN)” value (untreated left eyes, P.M. readings, Pre-Study, 10 mg/g (Group B)) was 23.9 mmHg.
